Source: patent US8778987B2, “Use of 4-hydroxychalcone derivatives for masking an unpleasant taste” (Symrise AG, priority 2008, dated 2014)

Assays:
Format in all cases: in vivo
[1] = system: bitter impression of aqueous caffeine solution; assay: Reducing bitterness of a bitter substance solution, rated by a panel of experts (caffeine); conditions: 500 ppm caffeine; for Bitter impression (1-10) with: error = 95% confidence range
Protocol: (§1) In order to quantify the reduction in the bitter impression, the bitterness of an aqueous bitter substance solution and a sample containing the same quantity of bitter substance and a varying quantity of the exemplary compound, was determined by a panel of experts (rating 0 [not bitter] to 10 [extremely bitter]). Evaluation took place by calculating the reduction (in %) in the bitter impression from the average values of the assessments of the bitter substance solution or the solutions containing bitter substance and exemplary compound. […] (2,4-DHB) was used as a comparison from U.S. Pat. No. 5,643,941.

[2] = system: taste impressions of meat stock with 0.4 wt. % sodium chloride and 0.4 wt. % potassium chloride; assay: Reduction in unpleasant taste impressions of potassium chloride-containing meat stock (triangle difference testing); conditions: 30 ppm
Protocol: A fat- and common salt-free meat stock is prepared with 0.4 wt. % sodium chloride and 0.4 wt. % potassium chloride (in each case relative to total weight) (comparison solution A). The same solution is prepared again and a quantity of phloretin (compound 4 from Example 1) is added. Solution A is served up to the testers once with the designation “standard solution”, and at the same time solution A and solution B are served up as “test solution 1” or “test solution 2” in a random order unknown to the respective tester (i.e. solutions A and B may have different designations for different testers; each tester has to test three solutions). In a first test phase, the testers are asked whether one of the three solutions tastes different from the other two (triangle difference testing). If the response to this question is “No”, the test is stopped for that tester. If the response to this question is “Yes”, the tester has to quantify the flavor qualities, listed below, of “test solution 1” or “test solution 2” deviating from the “standard solution” (relative to the “standard solution”, 0 flavor quality identical to the standard, −4 very much weaker than the standard, +4 very much stronger than the standard). Taking as basis the results from all the testers, the average of all deviations from the “standard solution” is calculated for the individual flavor qualities.

[3] = system: bitter impression of aqueous quinine hydrochloride solution; assay: Reducing bitterness of a bitter substance solution, rated by a panel of experts (quinine hydrochloride); conditions: 30 ppm substance, 5 ppm quinine hydrochloride
Protocol: as §1

[4] = system: bitter impression of aqueous salicin solution; assay: Reducing bitterness of a bitter substance solution, rated by a panel of experts (salicin); conditions: 30 ppm substance, 250 ppm salicin
Protocol: as §1

Row | SMILES | % reduction in bitter impression ([1]; 100 ppm substance) | Tester positive (number of testers who were able to identify masking) ([1]; 100 ppm substance, 15 testers total) | Bitter impression (1-10) with ([1]; 100 ppm substance) | Positive testers ([2]; of 21 testers, triangle difference testing) | Aromaticity, average deviation from standard solution ([2]; scale −4 to +4) | Bitter, average deviation from standard solution ([2]; scale −4 to +4) | Mouth fullness, average deviation from standard solution ([2]; scale −4 to +4) | Sour, average deviation from standard solution ([2]; scale −4 to +4) | Sweet, average deviation from standard solution ([2]; scale −4 to +4) | Salty, average deviation from standard solution ([2]; scale −4 very much weaker to +4 very much stronger than the standard) | % reduction in bitter impression [3] | Tester positive (number of testers who were able to identify masking) ([3]; 15 testers total) | Bitter impression (1-10) with ([3]; error = 95% confidence range) | % reduction in bitter impression ([1]; 50 ppm substance) | Tester positive (number of testers who were able to identify masking) ([1]; 50 ppm substance) | Bitter impression (1-10) with ([1]; 50 ppm substance) | % reduction in bitter impression [4] | Tester positive (number of testers who were able to identify masking) ([4]; 15 testers total) | Bitter impression (1-10) with ([4]; error = 95% confidence range)
1 | O=C(O)c1ccc(O)cc1O [2,4-DHB, 2,4-dihydroxybenzoic acid, reference compound] | 3%, n.s. | 9 | 5.0 ± 1.0 | – | – | – | – | – | – | – | – | – | – | – | – | – | – | – | –
2 | O=C(CCc1ccc(O)cc1)c1c(O)cc(O)cc1O [Compound 4, 3-(4-hydroxyphenyl)-1-(2,4,6-trihydroxy-phenyl)propan-1-one] | – | – | – | 16 (p < 0.05) | −0.1 | −0.4 | 0.3 | 0.1 | 0.9 | −0.7 | 25%, n.s. | 10 | 2.0 ± 1.4 | 28%, p < 0.05 | 13 | 3.9 ± 1.8 | 18%, p < 0.1 | 10 | 6.0 ± 1.8
